# What was measured:
# [1] = target: F-actin; assay: Actin co-sedimentation assay, dynamin-F-actin binding (Scatchard plot); conditions: 5 μM F-actin, centrifugation at 100,000×g, FIG. 14
# Experimental: Increasing concentrations of dynamin (free) were added to 5 μM of F-actin. After centrifugation at 100,000×g proteins were separated on SDS-PAGE and bands were analyzed using densitometry.
# To determine whether dynamin affects the actin cytoskeleton, the question of whether dynamin might directly bind filamentous actin (F-actin) was tested. In particular, an actin co-sedimentation assay was performed in which F-actin sediments under high-speed centrifugation. If dynamin interacts with F-actin it would be expected to co-sediment, and thus be present in the pellet fraction. In the presence of F-actin, but not in its absence, the majority of dynamin was found in the pellet (FIG. 12, lanes 2 and 14). […] The Kd of dynamin for actin was approximately 0.4 μM, which is similar to the affinities of other actin binding proteins such as α-actinin 4 for actin (Weins et al. 2005).
# Next, the actin binding site was mapped to a region between amino acids 399 and 444 amino acids of dynamin II (dyn2) (FIG. 13). As predicted for an actin binding domain (Van et al. 1996), this region contains several positively charged amino acids conserved in all dynamin gene products from yeast to mammals. It is also alternatively spliced within different mammalian dynamin isoforms (called variant a and b in dynamins I and II) (see FIG. 13, SEQ ID No. 1-4). Site-directed mutagenesis was performed on conserved, charged residues within this actin binding domain to generate the putative ‘loss of function’ mutants, dynK/E (SEQ ID No. 9) and dynK/A (SEQ ID No. 10), and a putative ‘gain of function’ mutant, dynE/K (SEQ ID No. 11) (FIG. 13). […] All three mutant proteins had wild-type kinetic properties with respect to the basal and stimulated rate of GTP hydrolysis, indicating proper folding.
# [2] = target: T1, full length dynamin I (Ovis aries, UniProt A0ACI6NZN1); assay: Basal dynamin GTPase activity in the absence of PS liposomes or other template (ring stabilizer activity); format: biochemical, sheep; conditions: for stimulation of basal dynamin GTPase activity in the presence of Tween-80: dynI 200 nM, Tween-80 0.06%, Bis-T series 10 μM, all other compounds 30 μM, FIG. 11B
# T1 sequence (A0ACI6NZN1 1-864): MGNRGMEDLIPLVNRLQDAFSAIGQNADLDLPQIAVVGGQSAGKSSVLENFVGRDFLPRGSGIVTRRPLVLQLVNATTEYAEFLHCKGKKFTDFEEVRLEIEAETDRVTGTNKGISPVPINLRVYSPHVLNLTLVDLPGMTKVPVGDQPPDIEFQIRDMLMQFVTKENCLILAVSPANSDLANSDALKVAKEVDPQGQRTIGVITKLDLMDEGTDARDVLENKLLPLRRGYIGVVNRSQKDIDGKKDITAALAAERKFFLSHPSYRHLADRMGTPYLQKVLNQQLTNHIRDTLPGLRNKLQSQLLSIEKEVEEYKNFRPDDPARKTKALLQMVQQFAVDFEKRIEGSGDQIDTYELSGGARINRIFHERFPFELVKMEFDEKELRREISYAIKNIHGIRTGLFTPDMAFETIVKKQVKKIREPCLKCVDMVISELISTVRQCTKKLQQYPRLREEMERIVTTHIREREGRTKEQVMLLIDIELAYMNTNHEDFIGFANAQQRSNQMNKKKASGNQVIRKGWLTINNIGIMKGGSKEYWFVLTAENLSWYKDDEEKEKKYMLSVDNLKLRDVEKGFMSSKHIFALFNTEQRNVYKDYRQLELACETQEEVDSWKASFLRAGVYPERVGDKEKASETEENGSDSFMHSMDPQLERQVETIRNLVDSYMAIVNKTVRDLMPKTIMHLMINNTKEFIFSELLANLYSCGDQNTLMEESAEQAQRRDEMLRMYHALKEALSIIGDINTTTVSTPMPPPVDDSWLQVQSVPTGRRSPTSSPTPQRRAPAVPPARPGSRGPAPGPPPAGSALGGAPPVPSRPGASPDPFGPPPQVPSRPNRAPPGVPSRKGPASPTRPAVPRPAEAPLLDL
# Experimental: The compounds were present at the indicated concentrations and the concentration causing half-maximal stimulation is shown as the EC50.
# Dynamin I (50 nM) GTPase stimulation was performed in the absence of the detergent Tween-80 (and in the absence of any known activators such as PS liposomes, nanotubes or microtubules). […] The GTPase activity of dynamin I (dynI; 200 nM) was measured in the absence of lipid activators (and in the presence of standard Tween-80 at 0.06%).
# A compound (whether a dynamin inhibitor or not) can be identified as a dynamin ring stabilizer by assaying for its capacity to promote accumulation of dynamin rings and/or to inhibit disassembly of dynamin rings. […] GTPase activity of dynamin or dynamin rings can be determined by any conventionally known method (e.g., see Quan and Robinson. 2005). Such conditions include: (a) the absence of a helix assembly template such as liposomes, microtubules or lipid nanotubes, and (b) higher concentrations of dynamin than normally required for detecting template stimulated activity, typically 50-500 nM dynamin instead of 1-20 nM. Thus, ring stabilizer activity can be identified by the ability to stimulate the GTPase activity of full length dynamin in the absence of other stimulatory factors (such as PS liposomes, microtubules or nanotubes). Additional defining characteristics are available but are not essential if the first condition has been met. One such additional characteristic of ring stabilizer activity is that the stimulated activity occurs after a lag phase of a few minutes, rather than being an immediate activation in vitro. […] Such conditions typically mean utilising 50-200 nM dynamin in the absence of a template as distinct from higher concentrations where self-assembly is known to occur without the addition of a dynamin ring stabilizer.
# Next, a time course experiment of Bis-T-23 stimulation of dynamin GTPase (FIG. 3) was conducted. […] The lag phase is thought to indicate the time required for dynamin to assemble as rings.
# [3] = test system: truncated dynamin I construct known as GG2; assay: Basal GTPase activity of assembly-incompetent dynamin construct GG2; format: biochemical; conditions: FIG. 5
# Text: FIG. 5 is a graph showing the basal GTPase activity of the truncated dynamin I construct known as GG2, containing only the GTPase domain linked to a small part of the GED domain (Chappie et al 2009). Unlike full length dynamin this construct is known to be unable to self-assemble or to form rings. Bis-T-22 and -23 and imminodyn-22 have no effect on the basal activity of this assembly-incompetent construct.
# To verify that ring stabilizers require dynamin oligomerisation, a recombinant form of dynamin, called GG-2, which is dimeric yet is unable to self-associate into higher order oligomers (Chappie et al 2009) was tested. Ring stabilizers are unable to stimulate the basal activity of such constructs (FIG. 5).
# [4] = test system: dynamin I; assay: Dynamin self-assembly assay, high speed centrifugation at decreasing NaCl; format: biochemical; conditions: dynamin 520 nM
# Experimental: This dynamin self-assembly assay was performed with native dynamin ([…]) using the Hepes column buffer described above in Example 1.1, (with the addition of 1% DMSO as described above). Bis-T effects were measured by pre-incubating the dynamin with the indicated Bis-T concentrations for 10 min at room temperature (22° C.). NaCl concentrations were varied from a stock in 200 mM NaCl. After the incubation the tubes were transferred to a TLA120.2 rotor (Beckman) and centrifuged in a tabletop ultracentrifuge (Optima TLX, Beckman) at 100,000 g for 20 min, and the supernatants (S) and pellets (P) were collected, precipitated with trichloracetic acid, solubilised in SDS sample buffer and separated on SDS gels.
# A block in ring disassembly should be manifested as an accumulation of rings in vitro. Dynamin self-assembles into rings in the absence of any cofactors when the buffer ionic strength is decreased (Song et al. 2004). To determine whether Bis-T compounds regulate dynamin-dynamin interactions a well-established method of high speed centrifugation in decreasing amounts of NaCl to collect rings in the pellet (Warnock et al. 1996) was used. Higher concentrations of dynamin (520 nM) and dynamin was visualized by Coomassie staining on SDS gels (FIG. 6). As reported by others, dynamin is in the supernatant at ≧40 mM NaCl, but self-assembled at ≦20 mM NaCl and is found in the pellet. […]
# [5] = test system: Human lymphoblasts (which express dynamin II); assay: EM analysis of clathrin coated pits in human lymphoblasts; format: cell-based; conditions: 30 min (Bis-T-22 100 μM), FIG. 10A
# Text: When vesicles are endocytosed via the clathrin-dependent pathway, they are well known to be internalised as omega shaped figures close to the plasma membrane with partially constricted and short necks. These can be detected by transmission electron microscopy (EM) at a low frequency.
# [6] = test system: rat brain synaptosomes; assay: EM analysis of endocytic pits in KCl-depolarised rat brain synaptosomes; format: cell-based; conditions: 30 min (100 μM), depolarised with KCl, FIG. 10B
# Text: When vesicles are endocytosed via the clathrin-dependent pathway, they are well known to be internalised as omega shaped figures close to the plasma membrane with partially constricted and short necks. These can be detected by transmission electron microscopy (EM) at a low frequency. […] In contrast to these observations, a dynamin ring stabilizer causes accumulation of clathrin coated pits in cells with two distinctive features: the vesicle necks are highly elongated and are encircled by electron dense rings. […] No rings or trapped vesicles were detected when the synaptosomes were unstimulated (FIG. 10B top). This mimics the in vitro observations on purified dynamin I described earlier which forms single rings (FIG. 9).
# [7] = target: T2, full length dynamin I (UniProt Q05193); assay: Basal dynamin GTPase activity in the absence of PS liposomes or other template (ring stabilizer activity); format: biochemical, sheep; conditions: 0.2 μM dyn1, 7 μM compound, 10 μM Gsn-F-actin complexes, FIG. 18
# T2 construct: rows headed: basal rate of GTP hydrolysis of dynamin
# T2 sequence (Q05193 1-864): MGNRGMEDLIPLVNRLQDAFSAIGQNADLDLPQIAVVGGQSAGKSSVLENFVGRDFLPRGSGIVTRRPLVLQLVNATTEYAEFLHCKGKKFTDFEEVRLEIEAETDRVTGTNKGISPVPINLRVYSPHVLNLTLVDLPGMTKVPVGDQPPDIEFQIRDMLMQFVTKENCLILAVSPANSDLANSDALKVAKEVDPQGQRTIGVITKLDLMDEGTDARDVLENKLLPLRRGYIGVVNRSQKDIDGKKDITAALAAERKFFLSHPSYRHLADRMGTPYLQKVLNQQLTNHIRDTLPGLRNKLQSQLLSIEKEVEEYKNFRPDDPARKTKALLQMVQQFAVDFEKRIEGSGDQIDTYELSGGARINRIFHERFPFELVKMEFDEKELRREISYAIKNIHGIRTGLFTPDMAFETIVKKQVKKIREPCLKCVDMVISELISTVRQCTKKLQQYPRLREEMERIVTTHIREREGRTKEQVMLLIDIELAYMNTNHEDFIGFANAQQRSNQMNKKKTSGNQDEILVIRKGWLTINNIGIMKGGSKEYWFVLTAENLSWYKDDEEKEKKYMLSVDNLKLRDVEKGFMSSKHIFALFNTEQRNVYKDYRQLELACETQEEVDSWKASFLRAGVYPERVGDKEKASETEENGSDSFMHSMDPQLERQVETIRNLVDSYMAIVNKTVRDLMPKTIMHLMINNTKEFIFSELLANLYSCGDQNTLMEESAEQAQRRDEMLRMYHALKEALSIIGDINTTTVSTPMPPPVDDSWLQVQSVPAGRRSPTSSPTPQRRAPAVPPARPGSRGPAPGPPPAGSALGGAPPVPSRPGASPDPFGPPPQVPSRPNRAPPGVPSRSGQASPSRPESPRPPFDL
molecule,measurement,setting,value
dynK/E: ‘loss of function’ dynamin mutant in the actin binding domain (SEQ ID No. 9) (RTGLFTPDLAFEAIVEEQVVELEEPCLECVDLVIQELISTVRQCTS; listed as Mus musculus),Kd,[1],1700 nM
dynE/K: ‘gain of function’ dynamin mutant in the actin binding domain (SEQ ID No. 11) (RTGLFTPDLAFEAIVKKQVVKLKKPCLKCVDLVIQKLISTVRQCTS; listed as Mus musculus),Kd,[1],30 nM
O=C(N/N=C/c1cc(O)c(O)cc1O)c1cc2ccccc2cc1O [Dyngo-4a],stimulation of basal dynamin GTPase activity in the presence of Tween-80,[2],effective
N=c1oc2c(O)c(O)ccc2cc1C(=O)NCCCNC(=O)c1cc2ccc(O)c(O)c2oc1=N [Iminodyn 22],effect on basal GTPase activity of GG2,[3],no effect
"O=C(N/N=C/c1ccc(O)c(O)c1)c1cc2ccccc2cc1O [Dynasore, 3-hydroxynaphthalene-2-carboxylic acid (3,4-dihydroxybenzylidene) hydrazide, reference compound]",stimulation of basal dynamin GTPase activity in the absence of Tween-80,"[2]; Dynamin I 50 nM, no Tween-80, no activators, FIG. 11A",stimulated basal dynamin GTPase activity to similar extents as Bis-T-23
same,stimulation of basal dynamin GTPase activity in the presence of Tween-80,[2],failed to stimulate basal GTPase activity
N=c1oc2c(O)cccc2cc1C(=O)NCCCNC(=O)c1cc2cccc(O)c2oc1=N [Iminodyn 20],ring stabilizer activity,"[2]; absence of PS, Table 2",no ring stabilizer activity
dynK/A: ‘loss of function’ dynamin mutant in the actin binding domain (SEQ ID No. 10) (RTGLFTPDLAFEAIVAAQVVALAEPCLACVDLVIQELISTVRQCTS; listed as Mus musculus),Kd,[1],2800 nM
"N#C/C(=C\c1ccc(O)c(O)c1)C(=O)NCCCNC(=O)/C(C#N)=C/c1ccc(O)c(O)c1 [Bis-T-22, 2-cyano-N-{3-[2-cyano-3-(3,4-dihydroxyphenyl)-acryloylamino]-propyl}-3-(3,4-dihydroxyphenyl)-acrylamide]",effect on basal GTPase activity of GG2,[3],no effect
same,dynamin ring assembly (dynamin in pellet),"[4]; 100 μM, intermediate salt concentrations",increased ring assembly
same,dynamin ring assembly (dynamin in pellet),"[4]; 300 μM, fixed 40 mM NaCl",promoted all dynamin to form rings
same,clathrin coated pits by EM,[5],massive accumulation in all cells of clathrin coated pits with highly elongated necks
same,trapped endocytic pits by EM,[6],trapped endocytic pits were detected that were encircled by a single electron dense ring
same,basal rate of GTP hydrolysis of dynamin,[7],stimulates dynamin's basal rate of GTP hydrolysis
